Experimental data as given in PMC4828318 (Journal of enzyme inhibition and medicinal chemistry, 2015).
Read-outs that look alike come from different tables or passages of the source.

Assays:
DNMT3A/3L = DNMT3A/3L (Homo sapiens, UniProt Q9Y6K1); assay: In vitro DNMT inhibition, radiometric filter-paper assay, DNMT3A/3L; type: biochemical
DNMT3B/3L = DNMT3B/3L (Homo sapiens, UniProt Q9UBC3); assay: In vitro DNMT inhibition, radiometric filter-paper assay, DNMT3B/3L; type: biochemical
DNMT3B = details: rats, 21-week treatment period; protein expression ref 39; cited from earlier work
DNMT1 [1] = details: rats, 21-week treatment period; protein expression ref 39; cited from earlier work
HepG2 cells = assay: MTT cell proliferation assay, HepG2; type: cell-based; details: Homo sapiens, HepG2, 24 h, read-out: IC50 (μM) HepG2
DNMT1 [2] = biological target: DNMT1 (Homo sapiens, UniProt P26358); assay: In vitro DNMT inhibition, radiometric filter-paper assay, DNMT1; type: biochemical
HT-29 cells = assay: MTT cell proliferation assay, HT-29; type: cell-based; details: Homo sapiens, HT-29, 24 h, read-out: IC50 (μM) HT-29

DNMT1 (Homo sapiens, UniProt P26358), sequence (P26358 whole entry): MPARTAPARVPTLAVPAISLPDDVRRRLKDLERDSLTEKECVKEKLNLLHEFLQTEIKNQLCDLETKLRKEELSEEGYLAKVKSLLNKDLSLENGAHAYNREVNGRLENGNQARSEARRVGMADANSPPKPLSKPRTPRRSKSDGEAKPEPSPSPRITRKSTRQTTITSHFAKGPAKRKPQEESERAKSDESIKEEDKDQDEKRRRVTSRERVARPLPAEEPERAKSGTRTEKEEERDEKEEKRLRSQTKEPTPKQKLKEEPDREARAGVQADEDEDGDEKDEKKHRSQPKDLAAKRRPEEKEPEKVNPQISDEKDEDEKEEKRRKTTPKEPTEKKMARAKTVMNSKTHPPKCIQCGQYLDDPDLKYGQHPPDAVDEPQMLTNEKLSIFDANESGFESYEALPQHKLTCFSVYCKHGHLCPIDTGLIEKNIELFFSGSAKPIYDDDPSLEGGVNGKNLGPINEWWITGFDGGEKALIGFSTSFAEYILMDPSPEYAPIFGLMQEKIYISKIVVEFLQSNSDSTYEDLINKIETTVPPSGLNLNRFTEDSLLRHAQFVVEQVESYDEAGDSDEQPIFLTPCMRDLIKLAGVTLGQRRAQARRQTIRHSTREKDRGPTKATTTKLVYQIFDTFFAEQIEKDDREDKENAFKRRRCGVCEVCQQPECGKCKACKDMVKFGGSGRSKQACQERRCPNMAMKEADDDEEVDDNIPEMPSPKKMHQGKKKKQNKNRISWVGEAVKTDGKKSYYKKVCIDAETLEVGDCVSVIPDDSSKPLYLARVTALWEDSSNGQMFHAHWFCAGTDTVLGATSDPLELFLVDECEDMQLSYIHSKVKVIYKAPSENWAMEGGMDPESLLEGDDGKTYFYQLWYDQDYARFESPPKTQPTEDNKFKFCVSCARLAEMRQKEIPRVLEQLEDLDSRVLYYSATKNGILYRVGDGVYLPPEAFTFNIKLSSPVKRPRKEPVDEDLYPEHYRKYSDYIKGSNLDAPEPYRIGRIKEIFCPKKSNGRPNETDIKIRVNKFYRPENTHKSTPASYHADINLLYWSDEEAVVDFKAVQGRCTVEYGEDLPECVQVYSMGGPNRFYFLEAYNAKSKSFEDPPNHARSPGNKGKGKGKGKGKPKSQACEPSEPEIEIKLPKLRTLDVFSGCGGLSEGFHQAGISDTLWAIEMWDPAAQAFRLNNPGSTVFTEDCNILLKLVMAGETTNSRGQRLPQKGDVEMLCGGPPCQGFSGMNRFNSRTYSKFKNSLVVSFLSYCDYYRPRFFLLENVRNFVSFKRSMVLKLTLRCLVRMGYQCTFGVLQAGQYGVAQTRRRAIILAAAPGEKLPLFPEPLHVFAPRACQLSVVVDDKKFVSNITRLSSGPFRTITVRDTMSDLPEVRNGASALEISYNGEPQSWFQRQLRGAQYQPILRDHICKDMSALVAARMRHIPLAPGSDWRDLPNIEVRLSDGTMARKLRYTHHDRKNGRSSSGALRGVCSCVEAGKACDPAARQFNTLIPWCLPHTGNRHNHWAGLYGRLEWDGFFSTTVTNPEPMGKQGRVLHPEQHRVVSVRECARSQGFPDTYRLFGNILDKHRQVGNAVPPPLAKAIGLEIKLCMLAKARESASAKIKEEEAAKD

IC50 (DNMT1 [2]) | SMILES | IC50 (DNMT3A/3L) | IC50 (DNMT3B/3L) | expression of DNMT3B (DNMT3B) | expression of the DNMT1 enzyme (DNMT1 [1]) | IC50 (HepG2 cells) | IC50 (HT-29 cells) | inhibition of DNMT3A at the highest test compound concentration (DNMT3A/3L; 300 μM) | inhibition of DNMT3B at the highest test compound concentration (DNMT3B/3L; 300 μM) | inhibition of DNMT1 at the highest test compound concentration (DNMT1 [2]; 300 μM) | IC50 (DNMT1 [2]; read-out: IC50 (μM) DNMT1, cell-free biochemical assay, NI = no inhibition at the maximum test compound concentration (300 μM))
> 300 µM | Oc1ccc(/C=C/c2cc(O)cc(O)c2)cc1 [Resveratrol, 3,4′,5-trans-trihydroxystilbene] | 105 µM | 65 µM | significant reduction | did not significantly reduce | 54.9 µM | 130 µM | – | – | – | –
– | COc1ccc(/C=C/c2cc(OC)cc(OC)c2)cc1 [TMS, 3,4′,5-trans-trimethoxystilbene] | > 300 µM | > 300 µM | – | – | > 100 µM | 14 µM | no significant inhibition | no significant inhibition | no significant inhibition | > 300 µM
